From the supplement of paper PMC13380429

How the values were obtained:
Conditions in all cases: 72 h
[1] = test system: Caco-2; assay: cell viability relative to DMSO; higher = less toxic
[2] = test system: Calu-3; assay: as above
[3] = test system: HepG2; assay: as above
[4] = test system: Vero E6; assay: as above
[5] = test system: Caco-2; assay: relative viability EC50 (midpoint between 100% and the lowest measured viability); higher = less toxic
[6] = test system: Calu-3; assay: as above
[7] = test system: HepG2; assay: as above
[8] = test system: Vero E6; assay: as above
[9] = test system: Caco-2; assay: drug sensitivity score (DSS) for viability; higher = more toxic; extreme values may be limits of the assay
[10] = test system: Calu-3; assay: as above
[11] = test system: HepG2; assay: as above
[12] = test system: Vero E6; assay: as above
[13] = test system: U2OS; assay: cell viability relative to DMSO; higher = less toxic
[14] = test system: U2OS; assay: relative viability EC50 (midpoint between 100% and the lowest measured viability); higher = less toxic
[15] = test system: U2OS; assay: drug sensitivity score (DSS) for viability; higher = more toxic; extreme values may be limits of the assay

In the case of `Cc1c(Cl)cccc1S(=O)(=O)Nc1nc(CC(=O)N2CCN(C)CC2)cs1` [BVT-2733], the cell viability ([1]; 1 nM) is reported as 106%, the cell viability ([1]; 10 nM) is reported as 92.6% and the cell viability ([1]; 100 nM) is reported as 100%. It also gave a cell viability ([1]; 1000 nM) of 106%, a cell viability ([1]; 10000 nM) of 98.3% and a cell viability ([2]; 1 nM) of 108%. The cell viability ([2]; 10 nM) was 102%, the cell viability ([2]; 100 nM) was 92.5% and the cell viability ([2]; 1000 nM) was 102%. It also gave a cell viability ([2]; 10000 nM) of 106%, a cell viability ([3]; 1 nM) of 104% and a cell viability ([3]; 10 nM) of 101%. For the same compound, the cell viability ([3]; 100 nM) was 92.7%, the cell viability ([3]; 1000 nM) was 104% and the cell viability ([3]; 10000 nM) was 97.4%. The cell viability ([4]; 1 nM) was 103%, the cell viability ([4]; 10 nM) was 101% and the cell viability ([4]; 100 nM) was 107%. The cell viability ([4]; 1000 nM) was 102%, the cell viability ([4]; 10000 nM) was 94.6% and the “relative viability EC50” value [5] was over 10 µM. For the same compound, the “relative viability EC50” value [6] was over 10 µM, the “relative viability EC50” value [7] was over 10 µM and the “relative viability EC50” value [8] was over 10 µM. The drug sensitivity score [9] was 0, the drug sensitivity score [10] was 0 and the drug sensitivity score [11] was 0. It also gave a drug sensitivity score [12] of 0.
For `O=c1[nH]nc2c3c(cccc13)N=C(CN1Cc3ccccc3C1)N2` [E7449], the cell viability ([1]; 1 nM) was 127%, the cell viability ([1]; 10 nM) was 104% and the cell viability ([1]; 100 nM) was 102%. For the same compound, the cell viability ([1]; 1000 nM) was 99%, the cell viability ([1]; 10000 nM) was 89.1% and the cell viability ([2]; 1 nM) was 109%. It also gave a cell viability ([2]; 10 nM) of 99.1%, a cell viability ([2]; 100 nM) of 98.6% and a cell viability ([2]; 1000 nM) of 97.6%. The cell viability ([2]; 10000 nM) was 88.6%, the cell viability ([3]; 1 nM) was 95% and the cell viability ([3]; 10 nM) was 103%. The cell viability ([3]; 100 nM) was 98.6%, the cell viability ([3]; 1000 nM) was 95.9% and the cell viability ([3]; 10000 nM) was 59.8%. It also gave a cell viability ([13]; 1 nM) of 105%, a cell viability ([13]; 10 nM) of 106% and a cell viability ([13]; 100 nM) of 106%. The cell viability ([13]; 1000 nM) was 94.7%, the cell viability ([13]; 10000 nM) was 87.3% and the cell viability ([4]; 1 nM) was 102%. It also gave a cell viability ([4]; 10 nM) of 100%, a cell viability ([4]; 100 nM) of 96.3% and a cell viability ([4]; 1000 nM) of 96.3%. The cell viability ([4]; 10000 nM) was 83.7%, the “relative viability EC50” value [5] was over 10 µM and the “relative viability EC50” value [6] was over 10 µM. The “relative viability EC50” value [14] was over 10 µM, the “relative viability EC50” value [8] was over 10 µM and the drug sensitivity score [9] was 0. It also gave a drug sensitivity score [10] of 0.1, a drug sensitivity score [11] of 2.7 and a drug sensitivity score [15] of 0.3. It also gave a drug sensitivity score [12] of 0.6.
For `CCn1cc(-c2cccc(C(F)(F)F)c2)c2sc(C(=N)NC3CCS(=O)(=O)CC3)cc2c1=O` [I-BRD9], the cell viability ([1]; 1 nM) was 111%, the cell viability ([1]; 10 nM) was 102% and the cell viability ([1]; 100 nM) was 97%. For the same compound, the cell viability ([1]; 1000 nM) was 97.8%, the cell viability ([1]; 10000 nM) was 93.5% and the cell viability ([2]; 1 nM) was 112%. It also gave a cell viability ([2]; 10 nM) of 99.5%, a cell viability ([2]; 100 nM) of 106% and a cell viability ([2]; 1000 nM) of 95.4%. It also gave a cell viability ([2]; 10000 nM) of 79.5%, a cell viability ([3]; 1 nM) of 94.4% and a cell viability ([3]; 10 nM) of 99.2%. The cell viability ([3]; 100 nM) was 98.6%, the cell viability ([3]; 1000 nM) was 97.5% and the cell viability ([3]; 10000 nM) was 63.4%. The cell viability ([13]; 1 nM) was 103%, the cell viability ([13]; 10 nM) was 102% and the cell viability ([13]; 100 nM) was 99.1%. It also gave a cell viability ([13]; 1000 nM) of 99.5%, a cell viability ([13]; 10000 nM) of 92% and a cell viability ([4]; 1 nM) of 95.1%. The cell viability ([4]; 10 nM) was 95.8%, the cell viability ([4]; 100 nM) was 98.7% and the cell viability ([4]; 1000 nM) was 98.1%. For the same compound, the cell viability ([4]; 10000 nM) was 92.3%, the “relative viability EC50” value [5] was over 10 µM and the “relative viability EC50” value [6] was over 10 µM. The “relative viability EC50” value [14] was over 10 µM, the “relative viability EC50” value [8] was over 10 µM and the drug sensitivity score [9] was 0. For the same compound, the drug sensitivity score [10] was 1.2, the drug sensitivity score [11] was 2.1 and the drug sensitivity score [15] was 0. It also gave a drug sensitivity score [12] of 0.
With `CCC1(c2ccccc2)C(=O)N(COC)C(=O)N(COC)C1=O` [eterobarb] the cell viability ([1]; 1 nM) was 102%, the cell viability ([1]; 10 nM) was 90.8% and the cell viability ([1]; 100 nM) was 95.3%. For the same compound, the cell viability ([1]; 1000 nM) was 105%, the cell viability ([1]; 10000 nM) was 111% and the cell viability ([2]; 1 nM) was 111%. The cell viability ([2]; 10 nM) was 88.2%, the cell viability ([2]; 100 nM) was 110% and the cell viability ([2]; 1000 nM) was 88.5%. The cell viability ([2]; 10000 nM) was 105%, the cell viability ([3]; 1 nM) was 105% and the cell viability ([3]; 10 nM) was 114%. The cell viability ([3]; 100 nM) was 97.4%, the cell viability ([3]; 1000 nM) was 100% and the cell viability ([3]; 10000 nM) was 88.4%. It also gave a cell viability ([4]; 1 nM) of 112%, a cell viability ([4]; 10 nM) of 110% and a cell viability ([4]; 100 nM) of 102%. For the same compound, the cell viability ([4]; 1000 nM) was 106%, the cell viability ([4]; 10000 nM) was 86.8% and the “relative viability EC50” value [5] was over 10 µM. The “relative viability EC50” value [6] was over 10 µM, the “relative viability EC50” value [7] was over 10 µM and the “relative viability EC50” value [8] was over 10 µM. For the same compound, the drug sensitivity score [9] was 0, the drug sensitivity score [10] was 0 and the drug sensitivity score [11] was 0. The drug sensitivity score [12] was 0.
With `N=C(N)SCCc1c[nH]cn1` [imetit] the cell viability ([1]; 1 nM) was 97.2%, the cell viability ([1]; 10 nM) was 99.1% and the cell viability ([1]; 100 nM) was 97%. For the same compound, the cell viability ([1]; 1000 nM) was 100%, the cell viability ([1]; 10000 nM) was 93.5% and the cell viability ([2]; 1 nM) was 97.8%. For the same compound, the cell viability ([2]; 10 nM) was 109%, the cell viability ([2]; 100 nM) was 97% and the cell viability ([2]; 1000 nM) was 93.7%. It also gave a cell viability ([2]; 10000 nM) of 87.8%, a cell viability ([3]; 1 nM) of 112% and a cell viability ([3]; 10 nM) of 111%. For the same compound, the cell viability ([3]; 100 nM) was 95.9%, the cell viability ([3]; 1000 nM) was 95.2% and the cell viability ([3]; 10000 nM) was 112%. It also gave a cell viability ([4]; 1 nM) of 103%, a cell viability ([4]; 10 nM) of 103% and a cell viability ([4]; 100 nM) of 103%. For the same compound, the cell viability ([4]; 1000 nM) was 97.1%, the cell viability ([4]; 10000 nM) was 101% and the “relative viability EC50” value [5] was over 10 µM. The “relative viability EC50” value [6] was over 10 µM, the “relative viability EC50” value [7] was over 10 µM and the “relative viability EC50” value [8] was over 10 µM. For the same compound, the drug sensitivity score [9] was 0, the drug sensitivity score [10] was 0.1 and the drug sensitivity score [11] was 0. It also gave a drug sensitivity score [12] of 0.
For `COc1cc([S+](C)[O-])ccc1-c1nc2cccnc2[nH]1` (centres undefined) [sulmazole], the cell viability ([1]; 1 nM) was 115%, the cell viability ([1]; 10 nM) was 98.5% and the cell viability ([1]; 100 nM) was 98.8%. For the same compound, the cell viability ([1]; 1000 nM) was 99.5%, the cell viability ([1]; 10000 nM) was 112% and the cell viability ([2]; 1 nM) was 108%. The cell viability ([2]; 10 nM) was 90.3%, the cell viability ([2]; 100 nM) was 90.7% and the cell viability ([2]; 1000 nM) was 93.8%. It also gave a cell viability ([2]; 10000 nM) of 104%, a cell viability ([3]; 1 nM) of 106% and a cell viability ([3]; 10 nM) of 103%. The cell viability ([3]; 100 nM) was 95.5%, the cell viability ([3]; 1000 nM) was 102% and the cell viability ([3]; 10000 nM) was 100%. It also gave a cell viability ([4]; 1 nM) of 98%, a cell viability ([4]; 10 nM) of 102% and a cell viability ([4]; 100 nM) of 98.5%. The cell viability ([4]; 1000 nM) was 97.8%, the cell viability ([4]; 10000 nM) was 101% and the “relative viability EC50” value [5] was over 10 µM. The “relative viability EC50” value [6] was over 10 µM, the “relative viability EC50” value [7] was over 10 µM and the “relative viability EC50” value [8] was over 10 µM. The drug sensitivity score [9] was 0, the drug sensitivity score [10] was 0 and the drug sensitivity score [11] was 0. The drug sensitivity score [12] was 0.
For `C=C[C@]1(C)C[C@@H](OC(=O)CSC(C)(C)CNC(=O)[C@H](N)C(C)C)[C@]2(C)[C@H](C)CC[C@]3(CCC(=O)[C@H]32)[C@@H](C)[C@@H]1O` [valnemulin], the cell viability ([1]; 1 nM) was 99.4%, the cell viability ([1]; 10 nM) was 93.3% and the cell viability ([1]; 100 nM) was 91.8%. The cell viability ([1]; 1000 nM) was 94.5%, the cell viability ([1]; 10000 nM) was 80.9% and the cell viability ([2]; 1 nM) was 94.3%. For the same compound, the cell viability ([2]; 10 nM) was 98.6%, the cell viability ([2]; 100 nM) was 102% and the cell viability ([2]; 1000 nM) was 101%. For the same compound, the cell viability ([2]; 10000 nM) was 98.9%, the cell viability ([3]; 1 nM) was 98.6% and the cell viability ([3]; 10 nM) was 104%. It also gave a cell viability ([3]; 100 nM) of 93.7%, a cell viability ([3]; 1000 nM) of 88.1% and a cell viability ([3]; 10000 nM) of 63%. It also gave a cell viability ([13]; 1 nM) of 97.4%, a cell viability ([13]; 10 nM) of 99.4% and a cell viability ([13]; 100 nM) of 97.7%. It also gave a cell viability ([13]; 1000 nM) of 96.3%, a cell viability ([13]; 10000 nM) of 79.5% and a cell viability ([4]; 1 nM) of 97.1%. The cell viability ([4]; 10 nM) was 98.7%, the cell viability ([4]; 100 nM) was 103% and the cell viability ([4]; 1000 nM) was 95.1%. The cell viability ([4]; 10000 nM) was 88.3%, the “relative viability EC50” value [5] was over 10 µM and the “relative viability EC50” value [6] was over 10 µM. For the same compound, the “relative viability EC50” value [14] was over 10 µM, the “relative viability EC50” value [8] was over 10 µM and the drug sensitivity score [9] was 0.7. The drug sensitivity score [10] was 0, the drug sensitivity score [11] was 3 and the drug sensitivity score [15] was 1.1. It also gave a drug sensitivity score [12] of 0.2.
